Measurements as given in PubChem BioAssay AID308 (DTP/NCI, 2004).
“And” between values parts separate entries of the source, which are not always exact repeats. Identical values can stand only once. Inconclusive results and toxic doses are left out.

Tested on: BDF1 mice, L1210 6-MP/6-TG resistant leukemia ip, survival T/C
Test: NCI In Vivo Anticancer Drug Screen. Data for tumor model L1210 Leukemia resistant to 6-MP and 6-Thioguanine; NSC 755, NSC 752 (intraperitoneal) in B6D2F1 (BDF1) mice
Conditions: endpoint: mean survival time, higher = longer survival
Method: The antitumor activity of compounds was measured in mice bearing transplantable tumors. Survival or tumor size were measured and the results are expressed as the measurement made in the treated group (T) divided by the measurement made in the vehicle treated control group (C). The tumor model used in this assay is L1210 Leukemia resistant to 6-MP and 6-Thioguanine; NSC 755, NSC 752 (intraperitoneal) in B6D2F1 (BDF1) mice

[1] = dose: 5.0 mg/kg/injection, schedule: Q01DX015 (ip), vehicle: carboxymethylcellulose (CMC)
[2] = dose: 20.0 mg/kg/injection, schedule: Q01DX015 (ip), vehicle: carboxymethylcellulose (CMC)

`O=P1(N(CCCl)CCCl)NCCCO1` (centres undefined) was tested, and the T/C (dose: 37.5 mg/kg/injection, schedule: Q01DX Z (ip), vehicle: saline) was 153 % of control, the T/C (dose: 75.0 mg/kg/injection, schedule: Q01DX Z (ip), vehicle: saline) was 94 % of control and the T/C (dose: 100.0 mg/kg/injection, schedule: Q01DX Z (ip), vehicle: saline) was 101 % of control.
`CN(Cc1cnc2nc(N)nc(N)c2n1)c1c(Cl)cc(C(=O)NC(CCC(=O)O)C(=O)O)cc1Cl` (centres undefined) was tested, and the T/C (dose: 0.31 mg/kg/injection, schedule: Q01DX015 (ip), vehicle: carboxymethylcellulose (CMC)) was 154 % of control, the T/C (dose: 0.62 mg/kg/injection, schedule: Q01DX015 (ip), vehicle: carboxymethylcellulose (CMC)) was 238 % of control and the T/C (dose: 1.25 mg/kg/injection, schedule: Q01DX015 (ip), vehicle: carboxymethylcellulose (CMC)) was 307 % of control. For the same compound, the T/C (dose: 2.5 mg/kg/injection, schedule: Q01DX015 (ip), vehicle: carboxymethylcellulose (CMC)) was 175 % of control and 320 % of control, the T/C [1] was 219 % of control and 330 % of control and the T/C (dose: 9.0 mg/kg/injection, schedule: Q02DX010 (ip), vehicle: carboxymethylcellulose (CMC)) was 348 % of control. For the same compound, the T/C (dose: 10.0 mg/kg/injection, schedule: Q01DX015 (ip), vehicle: carboxymethylcellulose (CMC)) was 162 % of control, the T/C (dose: 13.0 mg/kg/injection, schedule: Q01DX015 (ip), vehicle: carboxymethylcellulose (CMC)) was 293 % of control and the T/C (dose: 13.0 mg/kg/injection, schedule: Q02DX010 (ip), vehicle: carboxymethylcellulose (CMC)) was 348 % of control. The T/C [2] was 262 % of control, the T/C (dose: 20.0 mg/kg/injection, schedule: Q02DX010 (ip), vehicle: carboxymethylcellulose (CMC)) was 308 % of control and the T/C (dose: 30.0 mg/kg/injection, schedule: Q01DX015 (ip), vehicle: carboxymethylcellulose (CMC)) was 168 % of control and 181 % of control. The T/C (dose: 30.0 mg/kg/injection, schedule: Q02DX010 (ip), vehicle: carboxymethylcellulose (CMC)) was 310 % of control, the T/C (dose: 45.0 mg/kg/injection, schedule: Q01DX015 (ip), vehicle: carboxymethylcellulose (CMC)) was 269 % of control and the T/C (dose: 45.0 mg/kg/injection, schedule: Q02DX010 (ip), vehicle: carboxymethylcellulose (CMC)) was 343 % of control. The T/C (dose: 67.0 mg/kg/injection, schedule: Q02DX010 (ip), vehicle: carboxymethylcellulose (CMC)) was 348 % of control, the T/C (dose: 67.5 mg/kg/injection, schedule: Q01DX015 (ip), vehicle: carboxymethylcellulose (CMC)) was 205 % of control and the T/C (dose: 80.0 mg/kg/injection, schedule: Q01DX015 (ip), vehicle: carboxymethylcellulose (CMC)) was 116 % of control. For the same compound, the T/C (dose: 80.0 mg/kg/injection, schedule: Q01DX015 (ip), vehicle: saline) was 194 % of control, the T/C (dose: 100.0 mg/kg/injection, schedule: Q01DX015 (ip), vehicle: carboxymethylcellulose (CMC)) was 121 % of control and the T/C (dose: 100.0 mg/kg/injection, schedule: Q01DX015 (ip), vehicle: saline) was 233 % of control. The T/C (dose: 120.0 mg/kg/injection, schedule: Q01DX015 (ip), vehicle: carboxymethylcellulose (CMC)) was 104 % of control, the T/C (dose: 120.0 mg/kg/injection, schedule: Q01DX015 (ip), vehicle: saline) was 112 % of control and the T/C (dose: 75.0 micrograms/kg/injection, schedule: Q01DX015 (ip), vehicle: carboxymethylcellulose (CMC)) was 307 % of control. For the same compound, the T/C (dose: 150.0 micrograms/kg/injection, schedule: Q01DX015 (ip), vehicle: carboxymethylcellulose (CMC)) was 300 % of control, the T/C (dose: 310.0 micrograms/kg/injection, schedule: Q01DX015 (ip), vehicle: carboxymethylcellulose (CMC)) was 293 % of control and the T/C (dose: 620.0 micrograms/kg/injection, schedule: Q01DX015 (ip), vehicle: carboxymethylcellulose (CMC)) was 313 % of control.
In the case of `S=c1nc[nH]c2nc[nH]c12`, the T/C (dose: 3.5 mg/kg/injection, schedule: Q01DX Z (ip), vehicle: carboxymethylcellulose (CMC)) is reported as 99 % of control, the T/C [1] is reported as 93 % of control and 101 % of control and the T/C (dose: 7.0 mg/kg/injection, schedule: Q01DX Z (ip), vehicle: carboxymethylcellulose (CMC)) is reported as 100 % of control and 103 % of control and 106 % of control. The T/C (dose: 8.0 mg/kg/injection, schedule: Q01DX015 (ip), vehicle: carboxymethylcellulose (CMC)) was 94 % of control and 97 % of control and 103 % of control, the T/C (dose: 10.0 mg/kg/injection, schedule: Q01DX015 (ip), vehicle: alkali diluted with saline) was 96 % of control and the T/C (dose: 12.0 mg/kg/injection, schedule: Q01DX015 (ip), vehicle: carboxymethylcellulose (CMC)) was 90 % of control and 95 % of control and 96 % of control. The T/C (dose: 12.0 mg/kg/injection, schedule: Q01DX Z (ip), vehicle: carboxymethylcellulose (CMC)) was 110 % of control, the T/C (dose: 12.5 mg/kg/injection, schedule: Q01DX Z (ip), vehicle: carboxymethylcellulose (CMC)) was 95 % of control and the T/C (dose: 14.0 mg/kg/injection, schedule: Q01DX Z (ip), vehicle: carboxymethylcellulose (CMC)) was 96 % of control and 98 % of control and 104 % of control. The T/C (dose: 16.0 mg/kg/injection, schedule: Q01DX015 (ip), vehicle: carboxymethylcellulose (CMC)) was 95 % of control, the T/C (dose: 18.0 mg/kg/injection, schedule: Q01DX015 (ip), vehicle: carboxymethylcellulose (CMC)) was 93 % of control and 100 % of control and the T/C (dose: 19.0 mg/kg/injection, schedule: Q01DX Z (ip), vehicle: carboxymethylcellulose (CMC)) was 123 % of control. For the same compound, the T/C (dose: 20.0 mg/kg/injection, schedule: Q01DX015 (ip), vehicle: alkali diluted with saline) was 103 % of control, the T/C [2] was 96 % of control and the T/C (dose: 20.0 mg/kg/injection, schedule: Q01DX Z (ip), vehicle: carboxymethylcellulose (CMC)) was 101 % of control. The T/C (dose: 24.0 mg/kg/injection, schedule: Q01DX015 (ip), vehicle: carboxymethylcellulose (CMC)) was 93 % of control, the T/C (dose: 25.0 mg/kg/injection, schedule: Q01DX Z (ip), vehicle: carboxymethylcellulose (CMC)) was 88 % of control and the T/C (dose: 26.0 mg/kg/injection, schedule: Q01DX001 (ip), vehicle: alkali diluted with saline) was 97 % of control and 101 % of control. The T/C (dose: 27.0 mg/kg/injection, schedule: Q01DX015 (ip), vehicle: carboxymethylcellulose (CMC)) was 96 % of control and 100 % of control, the T/C (dose: 40.0 mg/kg/injection, schedule: Q01DX001 (ip), vehicle: alkali diluted with saline) was 96 % of control and 98 % of control (2×) and the T/C (dose: 40.0 mg/kg/injection, schedule: Q01DX001 (ip), vehicle: carboxymethylcellulose (CMC)) was 102 % of control and 109 % of control. For the same compound, the T/C (dose: 40.0 mg/kg/injection, schedule: Q01DX015 (ip), vehicle: alkali diluted with saline) was 103 % of control, the T/C (dose: 40.0 mg/kg/injection, schedule: Q01DX015 (ip), vehicle: carboxymethylcellulose (CMC)) was 92 % of control and 95 % of control and the T/C (dose: 42.0 mg/kg/injection, schedule: Q01DX Z (ip), vehicle: carboxymethylcellulose (CMC)) was 103 % of control. The T/C (dose: 50.0 mg/kg/injection, schedule: Q01DX Z (ip), vehicle: carboxymethylcellulose (CMC)) was 91 % of control, the T/C (dose: 56.0 mg/kg/injection, schedule: Q01DX Z (ip), vehicle: carboxymethylcellulose (CMC)) was 93 % of control and 97 % of control and the T/C (dose: 59.0 mg/kg/injection, schedule: Q01DX001 (ip), vehicle: carboxymethylcellulose (CMC)) was 100 % of control. For the same compound, the T/C (dose: 60.0 mg/kg/injection, schedule: Q01DX001 (ip), vehicle: alkali diluted with saline) was 96 % of control (2×) and 106 % of control, the T/C (dose: 60.0 mg/kg/injection, schedule: Q01DX001 (ip), vehicle: carboxymethylcellulose (CMC)) was 108 % of control and the T/C (dose: 60.0 mg/kg/injection, schedule: Q01DX010 (ip), vehicle: alkali diluted with saline) was 94 % of control. For the same compound, the T/C (dose: 90.0 mg/kg/injection, schedule: Q01DX001 (ip), vehicle: alkali diluted with saline) was 87 % of control and 97 % of control and 103 % of control, the T/C (dose: 90.0 mg/kg/injection, schedule: Q01DX001 (ip), vehicle: carboxymethylcellulose (CMC)) was 99 % of control and 102 % of control and the T/C (dose: 100.0 mg/kg/injection, schedule: Q01DX Z (ip), vehicle: carboxymethylcellulose (CMC)) was 91 % of control. For the same compound, the T/C (dose: 135.0 mg/kg/injection, schedule: Q01DX001 (ip), vehicle: alkali diluted with saline) was 96 % of control and 103 % of control and 105 % of control, the T/C (dose: 150.0 mg/kg/injection, schedule: Q01DX001 (ip), vehicle: carboxymethylcellulose (CMC)) was 96 % of control and the T/C (dose: 202.0 mg/kg/injection, schedule: Q01DX001 (ip), vehicle: alkali diluted with saline) was 99 % of control and 100 % of control and 102 % of control. For the same compound, the T/C (dose: 203.0 mg/kg/injection, schedule: Q01DX001 (ip), vehicle: carboxymethylcellulose (CMC)) was 95 % of control.
`Nc1ncnc2c1ccn2C1OC(CO)C(O)C1O` (centres undefined) was tested, and the T/C (dose: 0.03 mg/kg/injection, schedule: Q01DX Z (ip), vehicle: carboxymethylcellulose (CMC)) was 99 % of control, the T/C (dose: 0.06 mg/kg/injection, schedule: Q01DX Z (ip), vehicle: carboxymethylcellulose (CMC)) was 101 % of control and the T/C (dose: 0.12 mg/kg/injection, schedule: Q01DX Z (ip), vehicle: carboxymethylcellulose (CMC)) was 108 % of control. The T/C (dose: 0.25 mg/kg/injection, schedule: Q01DX Z (ip), vehicle: carboxymethylcellulose (CMC)) was 104 % of control, the T/C (dose: 0.5 mg/kg/injection, schedule: Q01DX Z (ip), vehicle: carboxymethylcellulose (CMC)) was 106 % of control and the T/C (dose: 1.0 mg/kg/injection, schedule: Q01DX Z (ip), vehicle: carboxymethylcellulose (CMC)) was 102 % of control. The T/C (dose: 2.0 mg/kg/injection, schedule: Q01DX Z (ip), vehicle: carboxymethylcellulose (CMC)) was 98 % of control.
